Measured values published in US20160257697A1, “THIOPHENE-SUBSTITUTED TETRACYCLIC COMPOUNDS AND METHODS OFUSE THEREOF FOR THE TREATMENT OF VIRAL DISEASES” (priority 2013, published 2016).
Read-outs that look alike come from different tables or passages of the source.

Key:
Assay in all cases: microbe, parasite or virus in culture
Format in all cases: cell-based, Hepatitis C virus (HCV)
HCV replicon 1AY93H = conditions: Replicon Assay A
In short: (§1)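 Replicon cells were seeded at 2000 cells/well with test compound in 0.5% DMSO and 5% FBS, then harvested on day 3. Replicon RNA was measured by multiplex TaqMan real-time RT-PCR, using cyclophilin RNA as the endogenous control and quantified against standard curves of HCV replicon total RNA.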

HCV replicon 1A = conditions: Replicon Assay A
In short: as §1

HCV replicon 2B = conditions: Replicon Assay A
In short: as §1

HCV replicon 1AQ30D = conditions: Replicon Assay B
HCV replicon 1B = conditions: Replicon Assay B
[1] = read-out: 1A Y93H IC50, replicon 1AY93H
[2] = read-out: 1A Q30D IC50, replicon 1AQ30D
[3] = Hepatitis C virus, read-out: 1A Y93H IC50 (nM), replicon 1AY93H
[4] = Hepatitis C virus, read-out: 2B IC50 (nM), replicon 2B
[5] = Hepatitis C virus, read-out: 1A Q30D IC50 (nM), replicon 1AQ30D
[6] = read-out: 1A Y93H IC50, HCV replicon 1A Y93H
[7] = read-out: 2B IC50, HCV replicon 2B
[8] = read-out: 1A Q30D IC50, HCV replicon 1A Q30D

SMILES	IC50 (HCV replicon 1AY93H; [1]) [nM]	IC50 (HCV replicon 1A; replicon 1A) [nM]	IC50 (HCV replicon 2B; read-out: 2B IC50, replicon 2B) [nM]	IC50 (HCV replicon 1AQ30D; [2]) [nM]	IC50 (HCV replicon 1AY93H; [3]) [nM]	IC50 (HCV replicon 1A; Hepatitis C virus, replicon 1A) [nM]	IC50 (HCV replicon 2B; [4]) [nM]	IC50 (HCV replicon 1B; Hepatitis C virus, replicon 1B) [nM]	IC50 (HCV replicon 1AQ30D; [5]) [nM]	IC50 (HCV replicon 1AY93H; [6]) [nM]	IC50 (HCV replicon 1A; HCV replicon 1A) [nM]	IC50 (HCV replicon 2B; [7]) [nM]	IC50 (HCV replicon 1AQ30D; [8]) [nM]	IC50 (HCV replicon 1B; HCV replicon 1B) [nM]	also measured
COC(=O)N[C@H](C(=O)N1CCC[C@H]1c1ncc(-c2cc(F)c3c(c2)OC(c2cc(C4CC4)cs2)n2c-3cc3cc(-c4cnc([C@@H]5CCCN5C(=O)[C@@H](NC(=O)OC)C(C)C)[nH]4)ccc32)[nH]1)C(C)C (single isomer, unassigned) [Compound 24]	1.35	0.0027	2.75	14.9	–	–	–	–	–	–	–	–	–	–	IC50 (HCV replicon 1B; replicon 1B): 0.0031 nM
COC(=O)NC(C(=O)N1CCC[C@H]1c1ncc(-c2cc(F)c3c(c2)OC(c2ccc(C)s2)n2c-3cc3cc(-c4cnc([C@@H]5CCCN5C(=O)[C@@H](NC(=O)OC)C5CCOCC5)[nH]4)ccc32)[nH]1)C(C)(C)F (single isomer, unassigned) [Compound 106]	–	–	–	0.03	0.16	0.0021	0.35	0.0015	–	–	–	–	–	–	–
COC(=O)N[C@H](C(=O)N1CCC[C@H]1c1ncc(-c2cc(F)c3c(c2)OC(c2cc(F)c(C4CC4)s2)n2c-3cc3cc(-c4cnc([C@@H]5CCCN5C(=O)[C@@H](NC(=O)OC)C(C)C)[nH]4)ccc32)[nH]1)C(C)C (single isomer, unassigned) [Compound 72]	0.01	0.0026	0.089	–	–	–	–	0.0015	0.78	–	–	–	–	–	–
COC(=O)NC(C(=O)N1CCC[C@H]1c1ncc(-c2ccc3c(c2)cc2n3C(c3cc(C)c(C)s3)Oc3cc(-c4cnc([C@@H]5CCCN5C(=O)[C@@H](NC(=O)OC)C5CCOCC5)[nH]4)cc(F)c3-2)[nH]1)C(C)(C)F (some centres unmarked) [Compound 128]	–	–	–	–	0.03	0.003	0.045	0.0036	0.044	–	–	–	–	–	–
COC(=O)NC(C(=O)N1[C@@H]2C[C@@H]2C[C@H]1c1ncc(-c2ccc3c(c2)cc2n3C(c3ccc(C(F)F)s3)Oc3cc(-c4cnc([C@@H]5CCCN5C(=O)[C@@H](NC(=O)OC)C(C)C)[nH]4)cc(F)c3-2)[nH]1)C1CCOC(C)(C)C1 (single isomer, unassigned) [Compound 415]	–	–	–	–	–	–	–	–	–	0.0042	0.0023	0.0126	–	–	IC50 (HCV replicon 1AQ30D; Hepatitis C virus, read-out: 1A Q30D IC50, HCV replicon 1A Q30D): 0.0424 nM; IC50 (HCV replicon 1B; Hepatitis C virus, HCV replicon 1B): 0.0024 nM
COC(=O)NC(C(=O)N1CCC[C@H]1c1ncc(-c2ccc3c(c2)cc2n3C(c3ccc(CC4CC4)s3)Oc3cc(-c4cnc([C@@H]5CCCN5C(=O)[C@@H](NC(=O)OC)C(C)C)[nH]4)cc(F)c3-2)[nH]1)C1CCOC(C)(C)C1 (single isomer, unassigned) [Compound 408]	–	–	–	–	–	–	–	–	–	0.004	0.0035	0.005	0.0261	0.0019	–
COC(=O)N[C@H](C(=O)N1CCC[C@H]1c1ncc(-c2cc(F)c3c(c2)OC(c2cc4ccccc4s2)n2c-3cc3cc(-c4cnc([C@@H]5C[C@H]6C[C@H]6N5C(=O)[C@@H](NC(=O)OC)C(C)C)[nH]4)ccc32)[nH]1)C(C)C (single isomer, unassigned) [Compound 616]	–	–	–	–	–	–	–	–	–	0.0205	0.0029	0.266	0.538	0.002	–
COC(=O)NC(C(=O)N1CCC[C@H]1c1ncc(-c2ccc3c(c2)cc2n3C(c3ccc(C4CC4)s3)Oc3cc(-c4cnc([C@@H]5CCCN5C(=O)[C@@H](NC(=O)OC)C5CCOCC5)[nH]4)cc(F)c3-2)[nH]1)C(C)(C)F (single isomer, unassigned) [Compound 173]	0.098	0.0017	0.35	0.28	–	–	–	–	–	–	–	–	–	–	IC50 (HCV replicon 1B; replicon 1B): 0.0021 nM
COC(=O)N[C@H](C(=O)N1CCC[C@H]1c1ncc(-c2cc(F)c3c(c2)OC(c2ccc(CC(F)(F)F)s2)n2c-3cc3cc(-c4cnc([C@@H]5CCCN5C(=O)[C@@H](NC(=O)OC)C(C)C)[nH]4)ccc32)[nH]1)C(C)C (some centres unmarked) [Compound 125]	–	–	–	–	0.018	0.0023	0.089	0.0013	0.29	–	–	–	–	–	–
COC(=O)N[C@H](C(=O)N1CCC[C@H]1c1ncc(-c2cc(C)c3c(c2)OC(c2ccc(C4CC4)s2)n2c-3cc3cc(-c4cnc([C@@H]5C[C@H]6C[C@H]6N5C(=O)[C@@H](NC(=O)OC)C(C)C)[nH]4)ccc32)[nH]1)C(C)C (single isomer, unassigned) [Compound 756]	–	–	–	–	–	–	–	–	–	0.64	0.0036	0.6	10.2	0.0022	–
